These results are taken from ChEMBL document CHEMBL1148542, “Synthesis of a novel biotin-tagged photoaffinity probe for VEGF receptor tyrosine kinases” (Bioorg Med Chem Lett, 2006).

Assay [1] deals with Vascular endothelial growth factor receptor 2 (Homo sapiens, UniProt P35968). Description: Inhibitory activity against VEGFR2 kinase.
Assay [2] addresses Vascular endothelial growth factor receptor (Homo sapiens, UniProt P17948+P35916+P35968). Description: Inhibitory activity against VEGF-stimulated proliferation in HUVEC. The class given is functional.

The term IC50 denotes the concentration at which inhibition is half-maximal. A high value points to weaker potency.

Chain of Vascular endothelial growth factor receptor 2 (P35968 whole entry): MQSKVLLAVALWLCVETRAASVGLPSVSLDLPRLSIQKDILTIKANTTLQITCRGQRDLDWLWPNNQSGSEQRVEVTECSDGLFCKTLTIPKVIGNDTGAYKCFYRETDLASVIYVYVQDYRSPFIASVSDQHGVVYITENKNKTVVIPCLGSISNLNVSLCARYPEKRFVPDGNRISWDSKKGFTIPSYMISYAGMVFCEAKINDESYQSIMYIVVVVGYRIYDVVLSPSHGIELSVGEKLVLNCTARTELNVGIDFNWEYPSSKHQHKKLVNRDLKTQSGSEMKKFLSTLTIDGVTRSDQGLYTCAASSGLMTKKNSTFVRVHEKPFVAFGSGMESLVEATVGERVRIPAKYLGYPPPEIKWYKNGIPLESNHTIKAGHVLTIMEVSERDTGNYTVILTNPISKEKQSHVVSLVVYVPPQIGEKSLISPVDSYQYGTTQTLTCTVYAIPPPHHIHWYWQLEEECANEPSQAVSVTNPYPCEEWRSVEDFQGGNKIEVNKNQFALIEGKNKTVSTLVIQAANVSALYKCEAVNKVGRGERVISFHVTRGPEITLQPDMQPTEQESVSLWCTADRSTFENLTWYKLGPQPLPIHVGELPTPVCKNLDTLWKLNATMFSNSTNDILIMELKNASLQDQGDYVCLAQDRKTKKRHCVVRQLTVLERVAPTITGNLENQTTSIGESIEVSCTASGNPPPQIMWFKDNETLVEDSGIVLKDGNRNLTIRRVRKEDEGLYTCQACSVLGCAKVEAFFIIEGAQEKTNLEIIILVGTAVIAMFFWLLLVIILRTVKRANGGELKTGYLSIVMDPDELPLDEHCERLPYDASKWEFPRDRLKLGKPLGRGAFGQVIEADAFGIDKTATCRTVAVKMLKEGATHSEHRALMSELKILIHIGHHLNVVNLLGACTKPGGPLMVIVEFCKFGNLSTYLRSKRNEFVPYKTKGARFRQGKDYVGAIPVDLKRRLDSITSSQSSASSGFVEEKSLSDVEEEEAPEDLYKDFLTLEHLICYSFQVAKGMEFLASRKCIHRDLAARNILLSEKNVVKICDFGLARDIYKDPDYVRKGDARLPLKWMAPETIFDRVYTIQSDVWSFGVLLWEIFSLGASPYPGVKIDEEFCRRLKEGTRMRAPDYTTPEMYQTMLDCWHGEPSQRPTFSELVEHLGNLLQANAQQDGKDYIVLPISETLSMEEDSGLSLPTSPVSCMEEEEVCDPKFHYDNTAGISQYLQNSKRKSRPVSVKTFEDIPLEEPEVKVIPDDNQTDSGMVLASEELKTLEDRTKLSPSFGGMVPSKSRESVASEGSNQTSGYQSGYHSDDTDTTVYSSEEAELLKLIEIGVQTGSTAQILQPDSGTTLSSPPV

For the molecule `COc1cc2c(Nc3ccc(Cl)cc3F)ncnc2cc1OCCNC(=O)CCCCC1SCC2NC(=O)NC21` (stereo unspecified), the values for the 50% inhibitory concentration (IC50) in assay [1] and in assay [2] were 4.8 µM and 14.7 µM, respectively.

Regarding `COc1cc2c(Nc3ccc(Cl)cc3F)ncnc2cc1OCCOCCNC(=O)c1c(F)c(F)c(N=[N+]=[N-])c(F)c1F`, the IC50 was below 1 µM in assay [1] and 3.2 µM in assay [2].

With `COc1cc2c(Nc3ccc(Cl)cc3F)ncnc2cc1OCCOCCNC(=O)C(CCCCNC(=O)CCCCC1SCC2NC(=O)NC21)NC(=O)c1c(F)c(F)c(N=[N+]=[N-])c(F)c1F` (stereo unspecified), the values for the IC50 in assay [1] and in assay [2] were 7.1 µM and 40.3 µM, respectively.

Molecule `COc1cc2ncnc(Nc3ccc(Cl)cc3F)c2cc1OC` gave an IC50 in assay [1] of 1.5 µM. This lies in the single-digit micromolar range.

As for `COc1cc2c(Nc3ccc(Cl)cc3F)ncnc2cc1OCCOCCNC(=O)CCCCC1SCC2NC(=O)NC21` (stereo unspecified), the figures for the IC50 in assay [1] and in assay [2] were 1.5 µM and 1.9 µM, respectively.

`COc1cc2c(Nc3ccc(Cl)cc3F)ncnc2cc1OCCNC(=O)c1c(F)c(F)c(N=[N+]=[N-])c(F)c1F`: the half-inhibitory concentration (IC50) is below 1 µM in assay [1] and 4.1 µM in assay [2].
